Earlier results, collected in patent publication US9855513B2, “Method for producing concentrated aqueous solution of organic compound” (Kao Corporation, priority 2012, dated 2018).

Details: in a water of 100 g at 25° C.

OCC(O)CO [glycerol]
solubility degree: ∞
